Source: patent publication US20210087533A1, “CANINE EPITHELIAL ORGANOIDS AND METHODS OF MAKING, RECOVERING, AND USE” (Iowa State University Research Foundation, Inc., priority 2019, published 2021)
Blank lines part the entries; values can stand above or below the compound they belong to.

Assays:
[1] = test system: TCC organoids; experiment: Ki-67 IHC staining (proliferation) of TCC organoids; assay type: cell-based, canine
[2] = test system: TCC organoids; experiment: MTT cell viability (cytotoxicity) assay, TCC organoids; assay type: cell-based, canine; conditions: for effect on TCC cell viability (MTT assay): old, much passaged TCC organoids
Method: Transitional Cell Carcinoma (TCC) Organoid Isolation and Culture. Canine bladder cancer cells for TCC organoids were isolated from urine (TCC #1) or biopsies (TCC #2) of dogs with transitional cell carcinoma. Briefly, urine was centrifuged and washed or small biopsies were washed with 1×Complete Chelation Solution (CCS) and vortexing up to 6 times, then incubated in 20-30 mM EDTA for 1 hour at 4° C. on a rocker. FBS and CCS was added to stop EDTA chelation, mixed, and the supernatant containing cancer cells was put in a new tube. Samples were centrifuged at 150 g for 5 minutes at 4° C., resuspended in DMEM/F12, centrifuged again, and the pellet was resuspended in 120 ul […]®. […]® droplets were then plated at 30 ul/well […]®/cells on 24-well plates. Complete Media with Growth Factors (CMGF+) containing Rock inhibitor and GSK inhibitor was added for 2-3 days at 37 C, and after 2-3 days, TCC organoids were cultured in CMGF+ media without inhibitors. TCC organoids were passaged every 4-7 days with TrypLE Express to dissociate organoids to single cells.
MTT Cell Viability Assay (Cytotoxicity Assay). Organoids from healthy intestine or transitional cell carcinoma (TCC) were dissociated and plated at equal density in 30 ul/well […]® in 24-well plates in 500 ul/well CMGF+ growth medium. On Day 1-4 after passage, organoids were incubated with the indicated drug for 48 or 96 hours. Cytotoxicity was determined using 3-(4,5-dimethylthiazol-2-yl) 2,5-diphenyl tetrazolium bromide (MTT) at a final concentration of 0.5 mg/mL for 1.5 hr. After medium removal, 200 ul/well cold DMSO was used to dissolve the formazan dye crystals and absorbance was read at 570 nm using a plate reader (SpectraMax 190, Molecular Devices).
As DMSO freezes […] but it is preferable to use cold media (4° C.) to dissolve the […]®. Thus, put DMSO briefly in 4° C. fridge or −20° C. freezer and remove before it all freezes, then use cold DMSO, pipette up and down vigorously, shake the plate, put plate in freezer briefly, etc. to try to get the […]® and formazan dye crystals to dissolve.

[3] = test system: TCC organoids; experiment: Morphology of treated TCC organoids; assay type: cell-based, canine; conditions: fenoldopam-treated TCC organoids
[4] = test system: canine UC organoids; experiment: MTT assay for metabolic activity of urine-derived UC organoids; assay type: cell-based; conditions: incubation for 24-48 hours
Method: Free-catch urine was collected from one dog at time of UC diagnosis. Samples were centrifuged and supernatant was removed. The resulting pellet was washed with phosphate-buffered saline (PBS), then incubated in complete chelating solution (CCS) with EDTA and plated in […]® for establishment of organoid culture within one week. Sub-samples of differentiated UC organoids were taken for 3-(4,5-dimethylthiazol-2-yl)-2,5-diphenyltetrazolium bromide (MTT) assay for metabolic activity assessment after incubation with chemotherapeutic agents. Remaining UC organoids were characterized with H&E, RNA in-situ hybridization (RNA-ISH), and immunohistochemistry (IHC) staining techniques.

[5] = molecular target: T1, P-gp (Canis lupus familiaris, UniProt C0KKU9); experiment: Rhodamine 123 (Rh123) transport in canine ileal enteroids; assay type: cell-based; conditions: Rh123 1-50 μM, 30 min incubation, without verapamil
T1 construct: Therefore, P-gp of the enteroids have maintained their transportation ability; endogenous in cells; host or cells: canine ileal enteroids (3D organoids from adult intestinal stem cells of dogs)
T1 sequence (C0KKU9 1-1281): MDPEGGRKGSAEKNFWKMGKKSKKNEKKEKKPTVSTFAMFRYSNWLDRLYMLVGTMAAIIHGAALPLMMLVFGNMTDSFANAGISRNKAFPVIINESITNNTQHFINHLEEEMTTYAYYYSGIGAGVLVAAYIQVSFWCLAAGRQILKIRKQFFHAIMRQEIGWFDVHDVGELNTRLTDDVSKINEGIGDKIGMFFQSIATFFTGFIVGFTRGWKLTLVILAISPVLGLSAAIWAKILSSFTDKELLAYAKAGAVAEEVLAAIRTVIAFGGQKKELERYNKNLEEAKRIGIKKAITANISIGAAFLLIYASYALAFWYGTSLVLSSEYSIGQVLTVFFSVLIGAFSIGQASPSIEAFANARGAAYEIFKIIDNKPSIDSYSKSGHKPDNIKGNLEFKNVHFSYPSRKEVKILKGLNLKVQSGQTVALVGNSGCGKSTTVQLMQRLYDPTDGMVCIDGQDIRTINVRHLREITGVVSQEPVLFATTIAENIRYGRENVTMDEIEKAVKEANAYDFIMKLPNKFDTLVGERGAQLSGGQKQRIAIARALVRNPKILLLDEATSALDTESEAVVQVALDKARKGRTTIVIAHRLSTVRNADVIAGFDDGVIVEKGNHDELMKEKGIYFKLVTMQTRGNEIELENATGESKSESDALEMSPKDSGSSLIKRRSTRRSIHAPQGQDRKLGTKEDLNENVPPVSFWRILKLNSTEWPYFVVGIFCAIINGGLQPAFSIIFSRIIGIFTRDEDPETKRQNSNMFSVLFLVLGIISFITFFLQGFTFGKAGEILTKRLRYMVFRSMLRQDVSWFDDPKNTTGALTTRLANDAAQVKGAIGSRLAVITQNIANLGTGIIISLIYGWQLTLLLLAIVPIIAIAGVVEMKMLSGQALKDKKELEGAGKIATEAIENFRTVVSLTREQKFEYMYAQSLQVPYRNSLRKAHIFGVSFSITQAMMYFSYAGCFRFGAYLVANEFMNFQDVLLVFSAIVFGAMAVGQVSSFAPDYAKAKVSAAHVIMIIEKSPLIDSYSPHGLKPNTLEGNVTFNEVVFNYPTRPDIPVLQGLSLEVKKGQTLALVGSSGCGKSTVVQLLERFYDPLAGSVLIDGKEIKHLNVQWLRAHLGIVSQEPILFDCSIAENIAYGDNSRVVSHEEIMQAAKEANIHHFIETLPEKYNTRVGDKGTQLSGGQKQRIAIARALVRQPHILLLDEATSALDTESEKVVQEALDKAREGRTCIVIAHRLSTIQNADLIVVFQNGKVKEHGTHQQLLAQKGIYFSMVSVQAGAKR
Method: Canine ileal enteroids were passaged into 15 μL per well of […] ® in chambered cover glass system (Lab-Tek, Chambered Coverglass 8 well) and cultured with 300 μL per well of CMGF+ media for 2 days. […] Rh123 transport experiments were divided into: (1) Control [CTR] […] Enteroids were treated for 30 min and then washed with room-temperature PBS.
Confocal microscopy (SP5 X MP LAS X; Leica) at the Iowa State University Roy J. Carver High Resolution Microscopy Facility was used to acquire images to detect green fluorescence within the luminal aspect of the enteroids. Fluorescence intensity was controlled by the luminal area to control for the size variation of the enteroids and quantified using the ImageJ software.
Student's t-tests were used to compare study groups (CTR vs. TRT) for the various doses of Rh123. The Benjamini-Hochberg Procedure was performed to control the risk of false positive for multiple comparisons. All statistical analyses were perform using GraphPad Prism 8.2.1 (San Diego, Calif.) and R 3.5.1. P<0.05 were considered as statistically significant.

Compound: NCCc1ccc(O)c(O)c1 [Dopamine]
increase of Ki-67 IHC staining ([1]; 0.1, 1, 10 μM): about 2 fold

Compound: COc1cccc2c1C(=O)c1c(O)c3c(c(O)c1C2=O)C[C@@](O)(C(=O)CO)C[C@@H]3O[C@H]1C[C@H](N)[C@H](O)[C@H](C)O1 [Doxorubicin]
TCC organoid cell viability (MTT) ([2]; 10 μM doxorubicin): 50 % of control
effect on TCC organoid cell viability (MTT), other runs ([2]; sometimes observed): small 20% effect or no effect
Ki-67 IHC (proliferation) ([1]; 0.1 μM Dox, once): 10-20 % of control

Compound: C[C@H](NC(=O)c1c(C(F)F)nn(C)c1Oc1cccc(C(F)(F)F)c1)c1ccc(C(=O)O)cc1 [E-7046]
effect on TCC cell viability (MTT assay) ([2]; other plate, dose not given): slight stimulatory effect

Compound: NS(=O)(=O)NCCNc1nonc1C(=NO)Nc1ccc(F)c(Br)c1 [Epacadostat]
TCC cell viability (MTT assay) ([2]; 1 μM Epacadostat, 48 hours): about 80 % of control
decrease of TCC cell viability (MTT assay) ([2]; other doses of Epacadostat, 48 hours): not at the other doses

Compound: COc1cc(OC)cc(N(CCNC(C)C)c2ccc3ncc(-c4cnn(C)c4)nc3c2)c1 [Erdafitinib]
effect on TCC cell viability (MTT assay) ([2]; 1-10 μM): no effect

Compound: Oc1ccc(C2CNCCc3c2cc(O)c(O)c3Cl)cc1 (centres unmarked) [Fenoldopam]
decrease of TCC organoid Ki-67 (proliferation) ([1]; 1 nM Fenoldopam): about 50%
effect on TCC organoid Ki-67 (proliferation) ([1]; 10 μM Fenoldopam): did not have much effect
lumens/holes in the TCC organoids [3]: getting bigger

Compound: CN1C(C(=O)Nc2ccccn2)=C(O)c2ccccc2S1(=O)=O [Piroxicam]
cell viability (MTT) ([2]; 1-10 μM, 48 hours or 4 days, organoid type not restated): ≥ 80 % of control
decrease of Ki-67 staining ([1]; 0.1 μM Piroxicam): 50%
increase of Ki-67 IHC staining ([1]; 1-10 μM Piroxicam): 2-3 fold

Compound: CC[C@]1(O)C[C@@H]2CN(CCc3c([nH]c4ccccc34)[C@@](C(=O)OC)(c3cc4c(cc3OC)N(C)[C@H]3[C@@](O)(C(=O)OC)[C@H](OC(C)=O)[C@]5(CC)C=CCN6CC[C@]43[C@@H]65)C2)C1 [Vinblastine]
effect on TCC cell viability (MTT assay) ([2]; other plate, dose not given): slight stimulatory effect

Compound: N.N.[Cl][Pt][Cl] [cisplatin]
metabolic activity of UC organoids (MTT) [4]: reduced metabolic activity

Rh123 luminal transportation [5]: significant dose response
Compound: Rhodamine 123 [Rh123]
